Experimental data from ChEMBL document CHEMBL1201862, “PubChem BioAssay data set” (2004).
Calls of active or inactive are those of the source.

Columns and labels:
[1] = tested on: H9c2; assay: cells; format: functional, cell-based; conditions: Rattus norvegicus, H9c2, Myocardium;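 also: confirmatory concentration-response retest of ultra-high-throughput screening hits for modulation of myocardial damage; cell death induced by hydrogen peroxide oxidative stress; compound pretreatment for 60 min then peroxide exposure for 2 h; potency is for protecting the cells against peroxide damage rather than for killing them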
[2] = molecular target: T1, High affinity choline transporter 1 (Homo sapiens, UniProt Q9GZV3); assay: CHT inhibitors, dose response, cell-based, 5-point CRC, membrane potential dye (AID 504840); format: functional
T1 sequence (Q9GZV3 whole entry): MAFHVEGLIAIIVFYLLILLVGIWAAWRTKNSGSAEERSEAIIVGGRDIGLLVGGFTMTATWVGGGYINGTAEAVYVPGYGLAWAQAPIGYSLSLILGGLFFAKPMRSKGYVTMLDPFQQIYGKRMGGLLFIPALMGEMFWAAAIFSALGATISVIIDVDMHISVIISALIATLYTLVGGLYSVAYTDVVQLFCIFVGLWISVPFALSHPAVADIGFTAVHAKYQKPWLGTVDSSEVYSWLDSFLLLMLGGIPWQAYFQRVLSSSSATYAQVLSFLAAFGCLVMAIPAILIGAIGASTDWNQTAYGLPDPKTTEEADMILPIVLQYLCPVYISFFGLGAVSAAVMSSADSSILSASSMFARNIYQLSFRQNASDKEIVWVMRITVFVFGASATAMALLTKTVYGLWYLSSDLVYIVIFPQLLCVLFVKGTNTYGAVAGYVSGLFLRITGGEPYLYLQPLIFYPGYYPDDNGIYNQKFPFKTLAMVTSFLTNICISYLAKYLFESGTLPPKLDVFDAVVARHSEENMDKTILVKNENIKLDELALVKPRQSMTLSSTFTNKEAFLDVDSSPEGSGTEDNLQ

[3] = molecular target: T2, Fatty acid synthase (Homo sapiens, UniProt P49327); assay: FAS thioesterase domain inhibitors, dose response, biochemical, endpoint fluorescence intensity, uHTS hits (AID 624327); format: functional;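 also: fluorescence from hydrolysis of an O-methyl fluorescein acyl ester substrate by the enzyme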
[4] = molecular target: T2, Fatty acid synthase; assay: FAS thioesterase domain inhibitors, dose response, biochemical, kinetic fluorescence intensity (AID 624326); format: functional;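 also: rate of fluorescence rise from hydrolysis of a fluorogenic O-methyl fluorescein ester substrate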
[5] = molecular target: T3, Corticotropin-releasing factor receptor 2/Corticotropin-releasing factor-binding protein (Homo sapiens, UniProt P24387+Q13324); assay: activators of CRF receptor 2 with binding protein – uHTS hits, confirmation (AID 602473); format: functional; conditions: read-out: EC50_Mean
T3 sequence (Q13324 whole entry): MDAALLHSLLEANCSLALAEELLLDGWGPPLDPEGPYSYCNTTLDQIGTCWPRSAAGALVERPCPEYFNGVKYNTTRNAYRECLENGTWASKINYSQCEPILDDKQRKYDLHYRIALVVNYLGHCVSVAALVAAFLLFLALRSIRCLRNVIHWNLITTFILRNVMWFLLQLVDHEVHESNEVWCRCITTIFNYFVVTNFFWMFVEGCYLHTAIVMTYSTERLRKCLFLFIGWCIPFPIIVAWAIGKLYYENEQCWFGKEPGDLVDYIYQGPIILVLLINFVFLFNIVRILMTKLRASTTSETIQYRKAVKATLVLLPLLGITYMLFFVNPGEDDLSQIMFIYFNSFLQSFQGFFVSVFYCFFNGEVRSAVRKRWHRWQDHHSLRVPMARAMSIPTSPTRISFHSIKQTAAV
T3 sequence (P24387 whole entry): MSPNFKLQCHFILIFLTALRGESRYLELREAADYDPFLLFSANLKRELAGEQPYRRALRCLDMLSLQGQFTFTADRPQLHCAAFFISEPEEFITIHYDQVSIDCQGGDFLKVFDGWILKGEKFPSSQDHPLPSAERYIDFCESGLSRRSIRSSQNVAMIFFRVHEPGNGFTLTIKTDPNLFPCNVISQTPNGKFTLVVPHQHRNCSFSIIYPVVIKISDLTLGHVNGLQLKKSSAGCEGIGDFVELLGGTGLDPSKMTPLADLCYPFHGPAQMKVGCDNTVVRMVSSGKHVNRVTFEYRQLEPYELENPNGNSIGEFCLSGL

[6] = molecular target: T4, Carboxy-terminal domain RNA polymerase II polypeptide A small phosphatase 1 (Homo sapiens, UniProt Q9GZU7); assay: inhibitors of CTDSP1, concentration-response testing, biochemical assay, absorbance-based, actives from ultra-high-throughput screening (AID 540297); format: functional
T4 sequence (Q9GZU7 whole entry): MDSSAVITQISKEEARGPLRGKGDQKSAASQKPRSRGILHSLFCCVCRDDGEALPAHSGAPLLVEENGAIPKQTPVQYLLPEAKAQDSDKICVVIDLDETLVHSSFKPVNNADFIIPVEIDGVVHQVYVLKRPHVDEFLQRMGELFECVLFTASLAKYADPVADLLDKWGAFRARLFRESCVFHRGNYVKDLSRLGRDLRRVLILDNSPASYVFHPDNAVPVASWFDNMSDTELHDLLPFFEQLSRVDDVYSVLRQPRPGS

[7] = molecular target: T5, Heat shock factor protein 1 (Mus musculus, UniProt P38532); assay: HSF1 potentiators in luciferase reporter cells, confirmation, cell-based, NIH3T3, luminescence, dose retest (AID 435004); format: functional;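 also: stress induced by proteasome inhibitor MG132 added 30 min after compound; luciferase reporter driven by HSF1 response element in NIH3T3 cells; actives raise luminescence as potentiators of the MG132 stress response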
T5 sequence (P38532 whole entry): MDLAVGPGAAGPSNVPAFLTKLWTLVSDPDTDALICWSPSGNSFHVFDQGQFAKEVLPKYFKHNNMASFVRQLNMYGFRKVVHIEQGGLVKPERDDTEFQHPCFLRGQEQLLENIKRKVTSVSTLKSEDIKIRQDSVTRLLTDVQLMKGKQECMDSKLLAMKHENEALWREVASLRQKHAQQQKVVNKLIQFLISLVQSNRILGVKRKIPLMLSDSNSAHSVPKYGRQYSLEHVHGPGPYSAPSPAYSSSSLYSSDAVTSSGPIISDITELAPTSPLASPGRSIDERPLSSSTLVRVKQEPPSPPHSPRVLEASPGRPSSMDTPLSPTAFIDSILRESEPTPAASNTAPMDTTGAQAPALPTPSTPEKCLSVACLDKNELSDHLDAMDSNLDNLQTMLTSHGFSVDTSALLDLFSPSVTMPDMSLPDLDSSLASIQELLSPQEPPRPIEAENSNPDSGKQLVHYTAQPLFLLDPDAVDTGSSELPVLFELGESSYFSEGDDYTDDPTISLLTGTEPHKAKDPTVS

[8] = Luminescence Cell-Based Dose Confirmation HTS to Identify Activators of 5'UTR Stem-Loop Driven Alpha-Synuclein mRNA Translation in H4 Neuroglioblastoma Cells. [Related pubchem assays: 1829 (Project Summary), 1814 (Primary HTS)]; format: functional
[9] = Luminescence Cell-Based Dose Response HTS to Identify Activators of Luciferase Translation or Activity in H4 […] Cells. [Related pubchem assays: 1829 (Project Summary), 1814 (Primary HTS)]; format: functional
[10] = tested on: H4; assay: Luminescence Cell-Based Dose Response HTS to Identify Activators of 5'UTR Stem-Loop Driven Prion Protein mRNA Translation in H4 Neuroglioblastoma Cells. [Related pubchem assays: 1829 (Project Summary), 1814 (Primary HTS)]; format: functional; conditions: Homo sapiens
[11] = Shn3 3'UTR reporter inhibitors, dose response, cell-based, Clone20 osteoblasts, firefly luciferase, cherry-picked (AID 624132); format: functional;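 also: firefly luciferase luminescence from reporter carrying the Shn3 3'UTR in osteoblasts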
[12] = HepG2 cell cytotoxicity, dose response, cytotoxicity control for Shn3 inhibitor project, CellTiter-Glo, cherry-picked (AID 624134); format: functional, cell-based
[13] = control 3'UTR Renilla luciferase suppression, dose response, counter-screen for Shn3 inhibitor project, cell-based, Clone20-Shn3RL, cherry-picked (AID 624133); format: functional
[14] = molecular target: T6, RNA-binding protein pos-1 (Caenorhabditis elegans, UniProt G5EF15); assay: inhibitors of POS-1/mex-3 RNA binding, dose response, biochemical, fluorescence polarization (AID 1964);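 also: purified POS-1 fused to maltose binding protein made in E. coli; potency of compounds blocking POS-1 binding to fluorescent RNA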
T6 sequence (G5EF15 whole entry): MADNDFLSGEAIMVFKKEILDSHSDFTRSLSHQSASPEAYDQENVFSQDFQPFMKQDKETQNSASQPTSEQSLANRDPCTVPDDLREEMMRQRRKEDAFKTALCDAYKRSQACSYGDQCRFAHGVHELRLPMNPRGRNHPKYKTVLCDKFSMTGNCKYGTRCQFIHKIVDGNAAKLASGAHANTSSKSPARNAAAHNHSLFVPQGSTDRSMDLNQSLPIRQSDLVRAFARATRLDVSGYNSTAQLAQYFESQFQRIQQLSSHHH

[15] = molecular target: T7, Zinc finger protein mex-5 (Caenorhabditis elegans, UniProt Q9XUB2); assay: MEX-5/TCR-2 RNA interaction inhibitors, dose response, biochemical, C. elegans, fluorescence polarization (AID 1960)
T7 sequence (Q9XUB2 whole entry): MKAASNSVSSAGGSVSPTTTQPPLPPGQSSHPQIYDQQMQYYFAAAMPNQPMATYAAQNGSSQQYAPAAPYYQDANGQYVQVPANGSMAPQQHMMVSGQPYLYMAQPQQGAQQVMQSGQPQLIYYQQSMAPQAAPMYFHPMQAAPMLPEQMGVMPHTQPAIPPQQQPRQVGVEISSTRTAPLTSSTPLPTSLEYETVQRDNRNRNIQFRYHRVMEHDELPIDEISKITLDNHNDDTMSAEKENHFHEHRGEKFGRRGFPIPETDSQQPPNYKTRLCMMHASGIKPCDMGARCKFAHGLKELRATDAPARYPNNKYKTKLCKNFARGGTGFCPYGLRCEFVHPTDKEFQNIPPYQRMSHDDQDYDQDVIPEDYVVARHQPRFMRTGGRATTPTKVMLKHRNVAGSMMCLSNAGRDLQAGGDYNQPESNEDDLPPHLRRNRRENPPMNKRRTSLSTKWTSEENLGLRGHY

[16] = inhibitors of clade B AD8 Env fusion, dose response, cell-based, cherry-pick (AID 652062); format: functional;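 also: luciferase signal from cell-cell fusion driven by HIV-1 clade B AD8 Env; potency is for inhibitors of fusion seen as a drop in luminescence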

T2 sequence (P49327 whole entry, the tested form may be a part): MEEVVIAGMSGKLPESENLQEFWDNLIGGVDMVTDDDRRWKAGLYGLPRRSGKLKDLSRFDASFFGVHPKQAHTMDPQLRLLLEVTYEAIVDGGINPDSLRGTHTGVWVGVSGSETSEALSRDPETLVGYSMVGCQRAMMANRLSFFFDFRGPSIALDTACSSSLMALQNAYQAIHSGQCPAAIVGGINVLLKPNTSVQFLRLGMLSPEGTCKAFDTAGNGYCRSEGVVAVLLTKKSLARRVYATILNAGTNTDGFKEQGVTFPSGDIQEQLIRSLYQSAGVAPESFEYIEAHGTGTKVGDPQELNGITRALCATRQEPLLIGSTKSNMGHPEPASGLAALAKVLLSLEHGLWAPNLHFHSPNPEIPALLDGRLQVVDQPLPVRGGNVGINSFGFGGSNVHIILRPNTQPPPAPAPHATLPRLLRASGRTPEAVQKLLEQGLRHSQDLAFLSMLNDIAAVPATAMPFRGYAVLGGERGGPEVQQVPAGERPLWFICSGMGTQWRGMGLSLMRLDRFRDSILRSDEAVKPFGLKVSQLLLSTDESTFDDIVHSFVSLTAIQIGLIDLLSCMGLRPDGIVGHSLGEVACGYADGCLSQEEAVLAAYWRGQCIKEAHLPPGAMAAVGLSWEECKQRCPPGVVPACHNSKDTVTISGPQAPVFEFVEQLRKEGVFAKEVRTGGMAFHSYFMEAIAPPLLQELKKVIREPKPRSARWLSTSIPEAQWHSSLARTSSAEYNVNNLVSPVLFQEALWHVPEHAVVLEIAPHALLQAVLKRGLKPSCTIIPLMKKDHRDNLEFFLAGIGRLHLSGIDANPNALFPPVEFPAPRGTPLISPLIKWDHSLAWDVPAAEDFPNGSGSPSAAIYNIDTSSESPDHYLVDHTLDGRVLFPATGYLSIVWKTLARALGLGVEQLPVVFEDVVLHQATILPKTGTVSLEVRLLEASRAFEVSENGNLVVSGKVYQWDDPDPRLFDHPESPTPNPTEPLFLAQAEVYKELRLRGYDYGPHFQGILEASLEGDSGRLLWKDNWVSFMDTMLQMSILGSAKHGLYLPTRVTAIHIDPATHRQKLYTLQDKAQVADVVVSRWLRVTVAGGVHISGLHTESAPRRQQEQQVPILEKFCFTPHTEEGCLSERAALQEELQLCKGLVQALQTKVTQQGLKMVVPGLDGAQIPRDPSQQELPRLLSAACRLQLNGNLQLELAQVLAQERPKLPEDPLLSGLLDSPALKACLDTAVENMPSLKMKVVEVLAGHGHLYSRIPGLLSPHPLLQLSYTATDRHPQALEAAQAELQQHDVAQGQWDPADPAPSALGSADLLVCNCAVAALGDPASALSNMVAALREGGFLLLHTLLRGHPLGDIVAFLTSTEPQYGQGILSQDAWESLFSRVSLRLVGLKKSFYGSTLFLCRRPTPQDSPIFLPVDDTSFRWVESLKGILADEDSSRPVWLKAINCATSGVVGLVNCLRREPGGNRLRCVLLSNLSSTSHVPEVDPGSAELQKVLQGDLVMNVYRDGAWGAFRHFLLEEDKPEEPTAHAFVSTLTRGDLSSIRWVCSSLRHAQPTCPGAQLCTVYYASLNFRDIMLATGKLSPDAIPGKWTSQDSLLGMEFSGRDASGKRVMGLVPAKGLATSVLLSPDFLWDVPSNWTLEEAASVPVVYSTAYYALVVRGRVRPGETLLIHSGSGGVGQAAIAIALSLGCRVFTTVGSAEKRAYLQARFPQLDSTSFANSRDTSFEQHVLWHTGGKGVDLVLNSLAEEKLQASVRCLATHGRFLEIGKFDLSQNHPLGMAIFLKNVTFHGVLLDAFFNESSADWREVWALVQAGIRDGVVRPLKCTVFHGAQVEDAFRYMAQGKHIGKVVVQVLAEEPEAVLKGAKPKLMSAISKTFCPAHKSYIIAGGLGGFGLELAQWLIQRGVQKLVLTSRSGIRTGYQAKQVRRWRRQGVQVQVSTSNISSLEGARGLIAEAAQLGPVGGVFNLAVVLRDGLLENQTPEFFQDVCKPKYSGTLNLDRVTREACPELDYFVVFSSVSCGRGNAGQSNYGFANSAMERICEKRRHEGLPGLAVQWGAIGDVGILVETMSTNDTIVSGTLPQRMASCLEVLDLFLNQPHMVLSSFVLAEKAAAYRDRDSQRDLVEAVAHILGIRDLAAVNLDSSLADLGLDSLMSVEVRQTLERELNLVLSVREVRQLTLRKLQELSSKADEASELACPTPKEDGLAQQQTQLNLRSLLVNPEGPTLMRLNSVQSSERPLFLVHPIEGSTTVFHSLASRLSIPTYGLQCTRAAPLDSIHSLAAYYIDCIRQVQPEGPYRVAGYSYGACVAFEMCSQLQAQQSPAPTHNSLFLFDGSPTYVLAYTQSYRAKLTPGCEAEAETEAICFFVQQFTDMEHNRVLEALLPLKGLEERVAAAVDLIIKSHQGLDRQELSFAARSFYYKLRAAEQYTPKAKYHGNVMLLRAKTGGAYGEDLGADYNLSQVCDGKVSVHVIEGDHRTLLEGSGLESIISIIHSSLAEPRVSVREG

COc1ccc(-c2cc(C(F)F)n3ncc(C(=O)Nc4ccc(C(=O)N5CCOCC5)cc4)c3n2)cc1
IC50 [1]: > 79 µM (inactive)

NC(=S)N/N=C1/CCSc2ccc3ccccc3c21
IC50 [2]: 6.48 µM (active)

O=C(COc1ccc([N+](=O)[O-])cc1)N1CCc2ccccc2C1
IC50 [3]: 6.92 µM (active)
IC50 [4]: 3.46 µM (active)

NCCCCCc1nnc(SCc2ccc(Cl)c(Cl)c2)o1
IC50 [2]: 13.2 µM (active)

Cc1cc(C)nc(N2N=C(CSc3ccc(Cl)cc3)CC2=O)n1
IC50 [2]: 15.1 µM (active)

COc1cccc(OC)c1C(=O)Nc1ccc(Br)c(C(=O)c2ccccc2)c1
IC50 [1]: 31.1 µM (inactive)

N#C/C(=N\Nc1cccc(Cl)c1)C(=O)c1ccccc1
IC50 [2]: 13.8 µM (active)
EC50 [5]: > 53 µM (inactive)

Cn1c(NN)nc2c1c(=O)n(Cc1ccccc1)c(=O)n2C
IC50 [6]: 25.2 µM (active)

O=[N+]([O-])c1ccc(O)c(CSc2nnnn2-c2ccccc2)c1
IC50 [2]: 12 µM (active)

COc1ccccc1OCCSc1nc(O)c2ccccc2n1
IC50 [1]: 14.4 µM (active)

CNc1nc(SC(C)C(=O)Nc2ccc(Cl)c(Cl)c2)nc(N2CCOCC2)n1 (centres undefined)
EC50 [7]: > 260 µM (inactive)

CC(C)(C)NC(=O)CC1C[C@H](C(=O)N2CCOCC2)[C@@]2(CCC3CCCC3)c3[nH]c4ccccc4c3CCN2C1=O (some centres undefined)
IC50 [3]: 2.31 µM (active)
IC50 [4]: 4.15 µM (active)

COCOc1cc(O)c(C(=O)/C=C/c2ccccc2)c(OCOC)c1
EC50 [7]: 22.1 µM (active)

O=C(Cn1cc(C(=O)C2CC2)c2ccccc21)NCc1ccc2c(c1)OCO2
IC50 [3]: 14.3 µM (active)
IC50 [4]: 8.36 µM (active)

Cn1c(=O)c(NC(=O)c2ccccc2)c2n(c1=S)CCCCC2
IC50 [6]: 14.3 µM (active)

Cc1ccc(C(C)C)c(OCC(=O)NS(=O)(=O)c2ccc(Cl)cc2)c1
IC50 [2]: 11.8 µM (active)

CNC(=O)c1cccc(NC(=O)c2cc(-c3ccccc3)nc3c2cnn3C(C)C)c1
IC50 [1]: > 79 µM (inactive)

Cn1c2c(c(=O)[nH]c1=O)C(c1ccc(O)cc1)C1=C(O)c3ccccc3C1=N2 (centres undefined)
EC50 [8]: > 120 µM (not active)
EC50 [9]: > 120 µM (not active)
EC50 [10]: > 120 µM (not active)

O=[N+]([O-])c1cccn2cc(-c3ccc(Br)cc3)nc12
EC50 [10]: > 120 µM (not active)
IC50 [6]: 9.74 µM (active)

COc1cccc(NC(=O)COC(=O)c2ccc(S(=O)(=O)NCc3ccco3)cc2)c1
IC50 [6]: 7.96 µM (active)

O=[N+]([O-])c1cccc(NC(S)=NCCc2ccccc2)c1
IC50 [3]: 10.1 µM (active)
IC50 [4]: 9.04 µM (active)

COc1ccc(/C=C/C(=O)OCC(=O)NCc2ccco2)cc1OC
IC50 [6]: 14.5 µM (active)

O=C(NCC(=O)N(Cc1cccs1)C(C(=O)NC1CCCCC1)c1ccco1)c1cccs1 (centres undefined)
IC50 [1]: 8.09 µM (active)

O=[N+]([O-])c1ccc(C(O)CSC(=S)N2CCCCC2)cc1 (centres undefined)
EC50 [8]: 7.46 µM (active)
EC50 [9]: 56.4 µM (active)
EC50 [10]: 32.7 µM (active)

COCCn1c(CN2CCN(c3cccc(Cl)c3)CC2)nc2c1c(=O)n(C)c(=O)n2C
IC50 [2]: 12.3 µM (active)
AC50 [11]: 10.7 µM (active)
AC50 [12]: 52.3 µM (active)
AC50 [13]: 11 µM (active)

Cc1ccc2c(C)c(C(=O)N3CCC(N4CCC(C(=O)NC5CC5)CC4)CC3)oc2c1
IC50 [2]: 14.5 µM (active)

O=C(O)/C(=C/c1ccc(Cl)c([N+](=O)[O-])c1)c1ccc(S(=O)(=O)N2CCCCC2)s1
IC50 [3]: 15.4 µM (active)
IC50 [4]: 12.6 µM (active)

Nc1c(C(=O)N/N=C/c2cccnc2)oc2nc(-c3ccccc3)cc(-c3ccco3)c12
EC50 [14]: > 300 µM (not active)
EC50 [15]: > 300 µM (not active)
IC50 [1]: > 79 µM (inactive)

COc1ccc([C@@H]2[C@@H]3C(=O)N(C(C)(C)C)C(=O)[C@@H]3[C@]3(Cc4ccccc4)C(=O)N(c4cccc(Br)c4)C(=O)N23)cc1
IC50 [3]: 21.5 µM (inactive)
IC50 [4]: 13.7 µM (active)

COc1cc2c(C(=O)NCc3ccccn3)cn(CC(C)C)c(=O)c2cc1OC
IC50 [1]: > 79 µM (inactive)

O=C(C[C@@H]1C[C@@H]2c3cc(NS(=O)(=O)c4ccc(F)cc4)ccc3O[C@@H]2[C@H](CO)O1)NCc1ccccc1F
AC50 [16]: 1.75 µM (active)

CCN1C(=O)[C@H]2[C@H]3CN=C(SCC4CC4)N3[C@@](Cc3ccccc3)(C(=O)OC)[C@H]2C1=O
IC50 [6]: 12.1 µM (active)
